Test results: patent US8734853B2, “HDL particles for delivery of nucleic acids” (University of North Texas Health Science Center at Fort …, priority 2008, dated 2014)

What was measured:
[1] = tested on: HCT116; conditions: HCT116 model, compared to controls
[2] = tested on: SKOV3ip1; assay: Ki-67 staining (cell proliferation index) of tumors from SKOV3ip1 model; format: in vivo, female athymic nude mice; conditions: compared with control group
Description: Effect of STAT3 targeting on tumor microenvironment. […] The combination of STAT3 siRNA/rHDL and docetaxel reduced tumor cell proliferation by 48% (P<0.01) compared with control group (FIG. 7).

[3] = tested on: SKOV3ip1; assay: Orthotopic ovarian cancer mouse model (SKOV3ip1); format: in vivo, female athymic nude mice; conditions: compared to control group
Protocol: (§1) Orthotopic mouse model. The 10- to 12-week-old female athymic nude mice were obtained from the US National Cancer Institute. All experiments were approved by the Institutional Animal Care and Use Committee of the M.D. Anderson Cancer Center. […] Tumor cells for appropriate ovarian cancer mouse models (HeyA8, 2.5×105; SKOV3ip1 and […], 1.0×106) were injected intraperitoneally into mice on day 0. Mice randomized into appropriate groups on day 7 when tumors had been established and were palpable. After 3-5 weeks of treatment (depending on the model), mice were necropsied and tumors were harvested. Small interfering RNA (siRNA). Specific siRNAs targeted against Stat3-7 (target sequence [NT] ID NO:1), FAK (target Sequence [NT] ID NO:2) and control siRNA targeted against (target sequence:[NT] ID NO:3) were purchased from Sigma-Aldrich Corporation, (Woodland, Tex.). These were incorporated into r-HDL nanoparticles, as previously described (Mooberry et al., 2009). 5 ug of r-HDL incorporated siRNA was injected intraperitoneally twice weekly. For in vitro studies, mRNA-specific or nonspecific (control) siRNA was incorporated into Qiagen RNAiFect transfection agent (1 ug of siRNA to 3 uL of RNAiFect). […] Cells were first transfected with STAT3 siRNA. Twenty-four hours after transfection, media was changed to standard siRNA-free media and cells were treated with docetaxel (see below for details). […]

[4] = tested on: HeyA8MDR; assay: Multi-drug resistant model of ovarian carcinoma (HeyA8MDR); format: in vivo, female athymic nude mice; conditions: compared to control siRNA/rHDL
Protocol: as §1

[5] = tested on: HeyA8; assay: Orthotopic mouse model of ovarian carcinoma (HeyA8); format: in vivo, female athymic nude mice
Protocol: Orthotopic mouse model. The 10- to 12-week-old female athymic nude mice were obtained from the US National Cancer Institute. All experiments were approved by the Institutional Animal Care and Use Committee of the M.D. Anderson Cancer Center. […] Tumor cells for appropriate ovarian cancer mouse models (HeyA8, 2.5×105; SKOV3ip1 and […], 1.0×106) were injected intraperitoneally into mice on day 0. Mice randomized into appropriate groups on day 7 when tumors had been established and were palpable. After 3-5 weeks of treatment (depending on the model), mice were necropsied and tumors were harvested. Small interfering RNA (siRNA). Specific siRNAs targeted against Stat3-7 (target sequence [NT] ID NO:1), FAK (target Sequence [NT] ID NO:2) and control siRNA targeted against (target sequence:[NT] ID NO:3) were purchased from Sigma-Aldrich Corporation, (Woodland, Tex.). These were incorporated into r-HDL nanoparticles, as previously described (Mooberry et al., 2009). 5 ug of r-HDL incorporated siRNA was injected intraperitoneally twice weekly. For in vitro studies, mRNA-specific or nonspecific (control) siRNA was incorporated into Qiagen RNAiFect transfection agent (1 ug of siRNA to 3 uL of RNAiFect). […] Cells were first transfected with STAT3 siRNA. Twenty-four hours after transfection, media was changed to standard siRNA-free media and cells were treated with docetaxel (see below for details). Reagents. Docetaxel was purchased from Sanofi-Aventis (Bridgewater, N.J.). […] These cells were treated with docetaxel after STAT3 gene was silenced using siRNA (as described above) for 48 hours. In In vivo experiments, appropriate groups received treatment with docetaxel starting on day 7, once a week, intraperitoneally at: 50 ug/mouse (HeyA8 and HeyA8-MDR) and 30 ug/mouse (SKOV3). […] Statistics. Continuous variables were compared with the use of the Student t test (between 2 groups) or analysis of variance (for all groups) if normally distributed, and with the use of the Mann-Whitney rank sum test or Kruskal Wallis test (for all groups) if nonparametric. […]

[6] = tested on: SKOV3ip1 ovarian cancer cells; assay: Annexin-V PE/7AAD flow cytometry apoptosis assay; format: cell-based; conditions: docetaxel 4 nM, 48 hours after docetaxel treatment
Protocol: All in vitro experiments were conducted using 4.0 nM concentration of docetaxel in SKOV3ip1 ovarian cancer cells. These cells were treated with docetaxel after STAT3 gene was silenced using siRNA (as described above) for 48 hours.
Additionally, to determine the effects of in vitro STAT3 targeting on apoptosis, STAT3 gene was silenced in SKOV3ip1 ovarian cancer cells using an siRNA targeted against STAT3 and followed by treatment with docetaxel (4 nM). 48 hours after docetaxel treatment, the extent of cell death secondary to apoptosis was analyzed after Annexin-V PE/7AAD staining with flow cytometry.

[7] = tested on: SKOV3ip1; assay: TUNEL staining of tumor tissues from the SKOV3ip1 model; format: in vivo, female athymic nude mice; conditions: SKOV3ip1 model tumors, compared to control group
Protocol: TUNEL Staining. Assessment of apoptosis, frozen sections stained by terminal deoxynucleotidyl transferase-mediated deoxyuridine triphosphate nick-end labeling (TUNEL; green; Promega, Madison, Wis.), was performed as described previously (Shahzad et al., 2009). The samples were counterstained with Hoechst 1:10,000 (Thaker et al., 2005). An apoptotic body was represented by green fluorescence. To quantify apoptotic cells, the number of TUNEL positive cells was calculated in 10 random fields at the original magnification 200× from five separate slides (per group) and averaged.
STAT3 is known to increase cell survival and inhibit apoptosis (Shen et al., 2001; Catlett-Falcone et al., 1999; Zushi et al., 1998; Masude et al., 2002). To assess whether STAT3 knockdown would enhance the efficacy of docetaxel treatment by enhancing its ability to produce apoptosis., fluorescents labeled TUNEL staining was performed on fresh frozen tumor tissues from the SKOV3ip1 ovarian cancer treatment model.

[8] = tested on: tumor associated angiogenesis; assay: CD31 staining, microvessel density (MVD) of tumor samples; conditions: compared with control siRNA/rHDL treatment
Protocol: Paraffin sections for CD31 (1:800 dilution, Pharmingen), were stained at 4° C. […] To quantify MVD, five random 0.159 mm2 fields at 100× magnification for each tumor were examined, and microvessels within those fields were counted (Thaker et al., 2005).
In order to ascertain the effects of STAT3 silencing on tumor associated angiogenesis, CD 31 staining on fresh frozen tumor samples from all four treatment groups (FIG. 7) was determined along with microvessel density (MVD).

[9] = tested on: SKOV3ip1 ovarian cancer cells; assay: MTT assay, docetaxel after STAT3 siRNA transfection; format: cell-based; conditions: SKOV3ip1 cells transfected with STAT3 siRNA, docetaxel in escalating doses, compared to docetaxel treatment
Protocol: Small interfering RNA (siRNA). Specific siRNAs targeted against Stat3—7 (target sequence 5′-[…]-3′; SEQ ID NO:1), FAK (target Sequence 5′-[…]-3′; SEQ ID NO:2) and control siRNA targeted against (target sequence:5′-[…]-3′; SEQ ID NO:3) were purchased from Sigma-Aldrich Corporation, (Woodland, Tex.). These were incorporated into r-HDL nanoparticles, as previously described (Mooberry et al., 2009). 5 ug of r-HDL incorporated siRNA was injected intraperitoneally twice weekly. For in vitro studies, mRNA-specific or nonspecific (control) siRNA was incorporated into Qiagen RNAiFect transfection agent (1 ug of siRNA to 3 uL of RNAiFect). Only 70% to 80% confluent SKOV3ip1 cells were utilized. Cells were first transfected with STAT3 siRNA. Twenty-four hours after transfection, media was changed to standard siRNA-free media and cells were treated with docetaxel (see below for details).
MTT assay. SKOV3 cell (1.5×105) cells were plated in each well, using 6 well plates. Cells were then transfected with control or STAT3 siRNA overnight. […] Forty-eight hours after docetaxel treatment, the number of viable cells was determined by adding 50 μL of 0.15% 3-(4,5-dimethylthiazol-2-yl)-2,5-diphenyl tetrazolium bromide (MTT; Sigma) to each well. […] Viable cells were quantified by measuring the absorbance at 570 nm using a uQuant plate reader (Bio-Tek, Winooski, Vt.). […]

[10] = tested on: Ovarian Tumor Cells; assay: Gene expression profile after STAT3 knockdown (Illumina microarray / quantitative RT-PCR); format: cell-based
Protocol: Effect of STAT3 Silencing on Gene Expression profile of Ovarian Tumor Cells. STAT3 knockdown using siRNA targeted against STAT3, microarray analysis using Illumina platform was performed There were 460 genes that were identified to have differential expression levels between the control and STAT3 targeted group. Data was then analyzed using ingenuity-pathway assistance and 32 genes that were involved in cell survival and apoptosis were chosen (Table 1).

[11] = STAT3 targeting study, compared to the control group

O=C1[O][Pt]2([NH][C@@H]3CCCC[C@H]3[NH]2)[O]C1=O [oxaliplatin]
reduction in tumor growth [1]: 55%

CC(=O)O[C@@]12CO[C@@H]1C[C@H](O)[C@@]1(C)C(=O)[C@H](O)C3=C(C)[C@@H](OC(=O)[C@H](O)[C@@H](NC(=O)OC(C)(C)C)c4ccccc4)C[C@@](O)([C@@H](OC(=O)c4ccccc4)[C@H]21)C3(C)C [docetaxel]
reduction in tumor cell proliferation (Ki-67) [2]: 30%
reduction in tumor growth [3]: 78%
reduction in tumor growth [4]: 17%
reduction in tumor growth ([5]; FAK targeting study): 74%
reduction in tumor growth [5, 11]: 62%
reduction in tumor metastasis [5, 11]: 77%
increase in apoptosis compared to control [6]: 5.2 fold
increase in tumor cell apoptosis (TUNEL) [7]: 12 fold
reduction in MVD (tumor associated vessel counts, CD31) [8]: 66%

STAT3 siRNA: siRNA against Stat3 (SEQ ID NO:1), transfected in vitro with Qiagen RNAiFect transfection agent (GCCUCUCUGCAGAAUUCAA; listed as RNA, chemistry not given here)
increase in apoptosis compared to control [6]: 3 fold
effect of STAT3 silencing on IC 50 values of docetaxel [9]: lowered the IC 50 values of docetaxel significantly
Fold Change ([10]; gene ALOX5, Stat3 silencing vs control): 1.43 fold
Fold Change ([10]; gene ATF6, Stat3 silencing vs control): 0.44 fold
Fold Change ([10]; gene BAX, Stat3 silencing vs control): 1.49 fold
Fold Change ([10]; gene BCL6, Stat3 silencing vs control): 0.72 fold
Fold Change ([10]; gene BEX2, Stat3 silencing vs control): 1.46 fold
Fold Change ([10]; gene CAV1, Stat3 silencing vs control): 0.75 fold
Fold Change ([10]; gene CD24, Stat3 silencing vs control): 0.73 fold
Fold Change ([10]; gene CDCP1, Stat3 silencing vs control): 0.73 fold
Fold Change ([10]; gene CTGF, Stat3 silencing vs control): 0.62 fold
Fold Change ([10]; gene CYR61, Stat3 silencing vs control): 0.68 fold
Fold Change ([10]; gene DKK1, Stat3 silencing vs control): 0.72 fold
Fold Change ([10]; gene DUSP1, Stat3 silencing vs control): 0.74 fold
Fold Change ([10]; gene ETS2, Stat3 silencing vs control): 0.56 fold
Fold Change ([10]; gene FGF2, Stat3 silencing vs control): 0.68 fold
Fold Change ([10]; gene FOS, Stat3 silencing vs control): 0.72 fold
Fold Change ([10]; gene HM OX1, Stat3 silencing vs control): 1.79 fold
Fold Change ([10]; gene IGFBP3, Stat3 silencing vs control): 0.45 fold
Fold Change ([10]; gene IL-1B, Stat3 silencing vs control): 0.55 fold
Fold Change ([10]; gene IL-6, Stat3 silencing vs control): 0.61 fold
Fold Change ([10]; gene KITLG, Stat3 silencing vs control): 0.66 fold
Fold Change ([10]; gene NFKBIZ, Stat3 silencing vs control): 0.65 fold
Fold Change ([10]; gene NQO1, Stat3 silencing vs control): 0.55 fold
Fold Change ([10]; gene NRP1, Stat3 silencing vs control): 0.67 fold
Fold Change ([10]; gene PLAUR, Stat3 silencing vs control): 0.72 fold
Fold Change ([10]; gene PMAIP1, Stat3 silencing vs control): 0.69 fold
Fold Change ([10]; gene PMEPA1, Stat3 silencing vs control): 0.71 fold
Fold Change ([10]; gene PRKRA, Stat3 silencing vs control): 0.68 fold
Fold Change ([10]; gene RASA1, Stat3 silencing vs control): 0.68 fold
Fold Change ([10]; gene RTN1, Stat3 silencing vs control): 1.37 fold
Fold Change ([10]; gene SFRP1, Stat3 silencing vs control): 0.55 fold
Fold Change ([10]; gene SGK1, Stat3 silencing vs control): 0.68 fold
Fold Change ([10]; gene SPARC, Stat3 silencing vs control): 0.7 fold
Fold Change ([10]; gene SPP1, Stat3 silencing vs control): 0.77 fold
Fold Change ([10]; gene STAT3, Stat3 silencing vs control): 0.23 fold
Fold Change ([10]; gene TCF3, Stat3 silencing vs control): 0.71 fold
Fold Change ([10]; gene TNFRSF11B, Stat3 silencing vs control): 0.61 fold
Fold Change ([10]; gene TNFSF10, Stat3 silencing vs control): 0.7 fold
Fold Change ([10]; gene XBP1, Stat3 silencing vs control): 0.74 fold
